Results from ChEMBL document CHEMBL1134601, “Coumarins derivatives as dual inhibitors of acetylcholinesterase and monoamine oxidase” (J Med Chem, 2001).

Assays:
[1] = biological target: Acetylcholinesterase (Electrophorus electricus) (UniProt O42275)
Description: Competitive inhibitory activity against acetylcholinesterase (AChE)

[2] = biological target: Acetylcholinesterase (Electrophorus electricus) (UniProt O42275); remark: listed apart in the source
Description: Non-competitive inhibitory activity against acetylcholinesterase (AChE)

Sequence of Acetylcholinesterase (Electrophorus electricus) (O42275 24-633 limits assumed): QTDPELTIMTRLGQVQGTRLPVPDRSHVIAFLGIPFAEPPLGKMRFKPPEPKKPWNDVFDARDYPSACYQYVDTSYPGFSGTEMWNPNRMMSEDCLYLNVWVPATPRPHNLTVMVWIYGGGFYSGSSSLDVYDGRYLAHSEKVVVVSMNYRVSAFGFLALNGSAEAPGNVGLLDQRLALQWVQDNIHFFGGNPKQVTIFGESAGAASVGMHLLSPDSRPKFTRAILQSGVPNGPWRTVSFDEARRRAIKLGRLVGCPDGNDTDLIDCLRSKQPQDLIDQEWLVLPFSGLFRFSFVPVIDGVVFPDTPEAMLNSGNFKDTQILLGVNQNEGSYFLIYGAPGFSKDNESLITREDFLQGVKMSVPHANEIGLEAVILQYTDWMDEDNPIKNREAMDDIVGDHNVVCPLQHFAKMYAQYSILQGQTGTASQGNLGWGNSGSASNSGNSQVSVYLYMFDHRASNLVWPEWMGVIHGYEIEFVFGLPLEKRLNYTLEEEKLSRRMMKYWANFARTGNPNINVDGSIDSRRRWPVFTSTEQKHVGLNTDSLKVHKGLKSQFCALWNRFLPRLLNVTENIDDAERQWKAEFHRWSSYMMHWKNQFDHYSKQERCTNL

SMILES | pKic [1] | pKinc [2]
COc1ccc2c(C)c(C)c(=O)oc2c1 | 4.8 | 4.56
Cc1c(C)c2ccc(OCCc3ccccc3)cc2oc1=O |  | 4.8
Cc1cc(=O)c2cc(OCc3ccccc3)ccc2o1 | 4.78 | 4.53
Cc1c(C)c2ccc(OCc3ccccc3)cc2oc1=O |  | 5.39
Cc1c(C)c2ccc(OCc3cc(F)cc(F)c3)cc2oc1=O |  | 4.73
Cc1ccccc1COc1ccc2c(C)c(C)c(=O)oc2c1 |  | 4.68
Cc1c(C)c2ccc(OCc3ccc(F)c(F)c3)cc2oc1=O |  | 5.06
Cc1c(C)c2ccc(OCc3cccc(O)c3)cc2oc1=O |  | 4.83
O=c1ccoc2ccc(OCc3ccccc3)cc12 |  | 4.29
Cc1c(C)c2ccc(O)cc2oc1=O | 4.54 | 4
Cc1c(C)c2ccc(OCc3cccc(N)c3)cc2oc1=O |  | 4.74
